“And” between values parts separate entries of the source, which are not always exact repeats. Identical values can stand only once. Like-named read-outs stand apart in the source and are kept apart here.
How the values were obtained:
[1] = test system: colchicine site of bovine brain tubulin; assay type: binding; settings: for Kd: tubulin binding constant, 25 °C
Method: Inhibition of this fluorescence increase was measured and converted to K d for the test compound as described.

bovine brain tubulin = assay: Tubulin polymerization inhibition; assay type: biochemical; settings: 10 μM tubulin; for Polymerization Inhibition (%) 3.3 μM: 3.3 μM compound; for Polymerization Inhibition (%) 33 μM: 33 μM compound
Method: Inhibition of tubulin polymerization was determined as described previously. In brief, 10 μM bovine brain tubulin (PurSolutions, LLC (puresoluble.com)) was incubated under conditions strongly promoting polymerization of tubulin (1 M NaGlutamate, 0.1 M Mes (Morpholinoethanesulfonic acid), 1 mM MgCl2, 0.5 mM GTP, pH 6.9), in the absence or presence of 3.3 or 33 μM test compound, incubated for 30 min at 37 °C, then centrifuged at 100,000g for 8 min, and the top 3/4 of the supernatant removed. Protein concentration was measured, and polymerization was determined as pelletable protein lost from the supernatant.

A549 = assay: Cell-growth inhibition (CellTiter); assay type: cell-based, human; settings: read-out: Cell Growth Inhibition GI50 ± SE
Method: (§1) Inhibition of cell growth was determined by using standard procedures. Cell lines were obtained from the NCI anticancer drug screen and maintained in DMEM medium supplemented with 10% fetal bovine serum. Growing cells were exposed to serial dilutions of each compound for 3 days. Cell growth was determined with CellTiter Assay Reagent (Promega), and growth parameters, including inhibition of growth, were measured by using the methods specified by the manufacturer.

M14 = assay: Cell-growth inhibition (CellTiter); assay type: cell-based, human; settings: read-out: Cell Growth Inhibition GI50 ± SE
Method: as §1

PC3 = assay: Cell-growth inhibition (CellTiter); assay type: cell-based, human; settings: read-out: Cell Growth Inhibition GI50 ± SE
Method: as §1

DU-145 = assay type: cell-based, human
How it was run: (§2)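 First, compounds went into the NCI-60 cell panel. Next, they were dosed at 0.01, 0.1, 1, 10 and 100 μM. Finally, TGI levels fed a COMPARE analysis against prior tubulin-inhibitor data.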

KM12 = assay type: cell-based, human; settings: for Log10GI50 / Log10LC50 / Log10TGI: KM12
How it was run: as §2

MDA-MB-468 = assay type: cell-based, human; settings: for GI50: Homo sapiens
How it was run: (§3)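 Each atropisomer and iso-atropisomer was submitted to the NCI screen and run at five tenfold dilutions from 100 μM down to 0.01 μM.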

OVCAR-5 = assay type: cell-based, human; settings: for GI50: Homo sapiens
How it was run: as §3

SF-268 = assay type: cell-based, human
How it was run: as §2

MOLT-4 = test system: MOLT-4; design: method as in NCI-60 database; settings: MOLT-4 ref NCI-60 database, cited from earlier work
NCI-H460 = test system: NCI-H460; design: method as in NCI-60 database; settings: NCI-H460 ref NCI-60 database, cited from earlier work
SNB-19 = test system: SNB-19; design: method as in NCI-60 database; settings: SNB-19 ref NCI-60 database, cited from earlier work
OVCAR-4 = test system: OVCAR-4; design: method as in NCI-60 database; settings: OVCAR-4 ref NCI-60 database, cited from earlier work
NCI/ADR-RES = test system: NCI/ADR-RES; design: method as in NCI-60 database; settings: NCI/ADR-RES ref NCI-60 database; listed as 757/9; cited from earlier work
786-0 = test system: 786-0; design: method as in NCI-60 database; settings: 786-0 ref NCI-60 database, cited from earlier work
RXF 393 = test system: RXF 393; design: method as in NCI-60 database; settings: RXF 393 ref NCI-60 database, cited from earlier work
DMS 114 = test system: DMS 114; design: method as in NCI-60 database; settings: DMS 114 ref NCI-60 database, cited from earlier work
DLD-1 = test system: DLD-1; design: method as in NCI-60 database; settings: DLD-1 ref NCI-60 database, cited from earlier work
SNB-78 = test system: SNB-78; design: method as in NCI-60 database; settings: SNB-78 ref NCI-60 database, cited from earlier work

## COc1cc(C)c(-c2ccc(OC)c(=O)cc2C)c(OC)c1OC (single isomer, unassigned) [(aR)-6]
[1]
  binding constant fold less potent than 3: 5–30 fold
[1]; read-out: Kd
  Kd: 95000 nM
Bovine brain tubulin
  Polymerization Inhibition (%) 3.3 μM: 0%
  Polymerization Inhibition (%) 33 μM: 100%
A549; A549, 3 days
  GI50: 2100 ± 100 nM
M14; M14, 3 days
  GI50: 1100 ± 200 nM
PC3; PC3, 3 days
  GI50: 1500 ± 100 nM
DU-145
  Log10GI50: -5.45 Molar
  Log10LC50: > -4.00 Molar
  Log10TGI: > -4.00 Molar
DU-145; Homo sapiens
  GI50: 3550 nM
DU-145; listed as (aR)-DM-MTC
  Log10GI50: -5.45 Molar
KM12; Homo sapiens, KM12 (printed KM29)
  GI50: 1620 nM
KM12
  Log10GI50: -5.79 Molar
  Log10LC50: > -4.00 Molar
  Log10TGI: > -4.00 Molar
KM12; listed as (aR)-DM-MTC
  Log10GI50: -5.79 Molar
MDA-MB-468
  Log10GI50: -5.97 Molar
  Log10LC50: > -4.00 Molar
  Log10TGI: > -4.00 Molar
  GI50: 1070 nM
MDA-MB-468; listed as (aR)-DM-MTC
  Log10GI50: -5.97 Molar
OVCAR-5
  Log10GI50: -5.36 Molar
  Log10LC50: > -4.00 Molar
  Log10TGI: > -4.00 Molar
  GI50: 4370 nM
OVCAR-5; listed as (aR)-DM-MTC
  Log10GI50: -5.36 Molar
SF-268
  Log10GI50: -5.26 Molar
  Log10LC50: > -4.00 Molar
  Log10TGI: > -4.00 Molar
SF-268; Homo sapiens
  GI50: 5500 nM
SF-268; listed as (aR)-DM-MTC
  Log10GI50: -5.26 Molar

## COc1cc(C)c(-c2ccc(=O)c(OC)cc2C)c(OC)c1OC (single isomer, unassigned) [(aR)-iso-6]
[1]
  Kd: nb
Bovine brain tubulin
  Polymerization Inhibition (%) 3.3 μM: 0%
  Polymerization Inhibition (%) 33 μM: 0%
A549; A549, 3 days
  GI50: > 20000 nM
M14; M14, 3 days
  GI50: > 20000 nM
PC3; PC3, 3 days
  GI50: > 20000 nM
MDA-MB-468
  Log10GI50: > -4.00 Molar
  Log10LC50: > -4.00 Molar
  Log10TGI: > -4.00 Molar
OVCAR-5
  Log10GI50: > -4.00 Molar
  Log10LC50: > -4.00 Molar
  Log10TGI: > -4.00 Molar

## COc1cc(C)c(-c2ccc(OC)c(=O)cc2C)c(OC)c1OC (single isomer, unassigned) [(aS)-6]
[1]; read-out: Kd
  Kd: 230000 nM
Bovine brain tubulin
  Polymerization Inhibition (%) 3.3 μM: 0%
  Polymerization Inhibition (%) 33 μM: 0%
A549; A549, 3 days
  GI50: > 20000 nM
M14; M14, 3 days
  GI50: > 20000 nM
PC3; PC3, 3 days
  GI50: > 20000 nM
DU-145
  Log10GI50: > -4.00 Molar
  Log10LC50: > -4.00 Molar
  Log10TGI: > -4.00 Molar
KM12
  Log10GI50: > -4.00 Molar
  Log10LC50: > -4.00 Molar
  Log10TGI: > -4.00 Molar
MDA-MB-468
  Log10GI50: -4.20 Molar
  Log10LC50: > -4.00 Molar
  Log10TGI: > -4.00 Molar
OVCAR-5
  Log10GI50: > -4.00 Molar
  Log10LC50: > -4.00 Molar
  Log10TGI: > -4.00 Molar
SF-268
  Log10GI50: > -4.00 Molar
  Log10LC50: > -4.00 Molar
  Log10TGI: > -4.00 Molar

## COc1cc(C)c(-c2ccc(=O)c(OC)cc2C)c(OC)c1OC (single isomer, unassigned) [(aS)-iso-6]
[1]
  Kd: nb
Bovine brain tubulin
  Polymerization Inhibition (%) 3.3 μM: 0%
  Polymerization Inhibition (%) 33 μM: 0%
A549; Homo sapiens, A549, 72 h, A549, 3 days
  GI50: > 20000 nM
M14; Homo sapiens, M14, 72 h, M14, 3 days
  GI50: > 20000 nM
PC3; Homo sapiens, PC-3, 72 h, PC3, 3 days
  GI50: > 20000 nM
MDA-MB-468
  Log10GI50: -4.85 Molar
  Log10LC50: > -4.00 Molar
  Log10TGI: > -4.00 Molar
  GI50: 14100 nM
MDA-MB-468; […]
  Log10GI50: -4.85 Molar
OVCAR-5
  Log10GI50: -4.38 Molar
  Log10LC50: > -4.00 Molar
  Log10TGI: > -4.00 Molar
  GI50: 41700 nM
OVCAR-5; […]
  Log10GI50: -4.38 Molar

## COc1cc2c(c(OC)c1OC)-c1ccc(OC)c(=O)cc1[C@@H](NC(C)=O)CC2 [Colchicine, (−)-Colchicine]
A549; Homo sapiens, A549, 72 h
  GI50: 40 nM
M14; Homo sapiens, M14, 72 h
  GI50: 10 ± 1 nM
PC3; Homo sapiens, PC-3, 72 h
  GI50: 20 ± 5 nM
MOLT-4
  GI50: 40 nM
  Log10GI50: -7.45 Molar
MOLT-4; listed as 757/9
  Log10GI50: -7.60 Molar
  Log10LC50: -4.90 Molar
  Log10TGI: < -8.00 Molar
MOLT-4; listed as 757/21
  Log10LC50: > -4.00 Molar
  Log10TGI: > -4.00 Molar
NCI-H460
  GI50: 20 nM
  Log10GI50: -7.65 Molar
  Log10LC50: > -4.00 Molar
NCI-H460; listed as 757/9
  Log10TGI: -7.12 Molar
NCI-H460; listed as 757/21
  Log10GI50: -7.62 Molar and -7.50 Molar and -7.65 Molar
SNB-19
  GI50: 40 nM
  Log10GI50: -7.43 Molar
  Log10LC50: > -4.00 Molar
SNB-19; listed as 757/1
  Log10GI50: < -8.00 Molar
SNB-19; listed as 757/9
  Log10GI50: -7.55 Molar
SNB-19; listed as 757/21
  Log10GI50: -7.22 Molar and -7.43 Molar
OVCAR-4
  GI50: 93300 nM
  Log10GI50: -4.03 Molar
  Log10LC50: > -4.00 Molar
  Log10TGI: > -4.00 Molar
OVCAR-4; listed as 757/1
  Log10GI50: -4.45 Molar
NCI/ADR-RES
  Log10GI50: -6.59 Molar and -6.31 Molar
786-0
  GI50: 78 nM
  Log10GI50: -7.11 Molar
  Log10LC50: > -4.00 Molar
  Log10TGI: > -4.00 Molar
786-0; listed as 757/9
  Log10GI50: -7.54 Molar and -7.46 Molar
786-0; listed as 757/21
  Log10GI50: -7.24 Molar and -7.34 Molar and -7.11 Molar
RXF 393
  GI50: < 10 nM
  Log10GI50: < -8 Molar
  Log10LC50: > -4.00 Molar
RXF 393; listed as 757/1
  Log10GI50: < -8.00 Molar
  Log10TGI: > -4.00 Molar
RXF 393; listed as 757/9
  Log10GI50: -7.93 Molar
RXF 393; listed as 757/21
  Log10GI50: -7.83 Molar and -7.85 Molar
DMS 114
  Log10LC50: > -4.00 Molar
DMS 114; listed as 757/1
  Log10GI50: -4.75 Molar
DMS 114; listed as 757/21
  Log10GI50: < -8.00 Molar
  Log10TGI: -7.73 Molar and -7.65 Molar
DLD-1
  Log10LC50: > -4.00 Molar
  Log10TGI: > -4.00 Molar
DLD-1; listed as 757/1
  Log10GI50: -7.35 Molar
SNB-78
  Log10LC50: > -4.00 Molar
  Log10TGI: > -4.00 Molar
SNB-78; listed as 757/21
  Log10GI50: -7.88 Molar and < -8.00 Molar
